# Experimental data reported in patent publication US9006139B2, “Active compound combinations” (Bayer Intellectual Property GmbH, priority 2009, dated 2015).
# Legend:
# Format in all cases: in vivo
# [1] = system: Leptosphaeria nodorum; experiment: Leptosphaeria nodorum test (wheat)/preventive; conditions: Parastagonospora nodorum, 192 h, Table K, read-out: Efficacy in % found; for pest or weed control at 500 ppm: 500 ppm a.i.; for pest or weed control at 125 ppm: 125 ppm a.i.; for pest or weed control at 62.5 ppm: 62.5 ppm a.i.
# Experimental: (§1) Solvent: 49 parts by weight of n,n-dimethylacetamid
# (§2) Emulsifier: 1 part by weight of alkylaryl polyglycol ether
# (§3) To produce a suitable preparation of active compound, 1 part by weight of active compound or active compound combination is mixed with the stated amounts of solvent and emulsifier, and the concentrate is diluted with water to the desired concentration. To test for preventive activity, young plants are sprayed with the preparation of active compound or active compound combination at the stated rate of application. After the spray coating has been dried, the plants are sprayed with a spore suspension of Leptosphaeria nodorum. The plants remain for 48 hours in an incubation cabinet at approximately 20° C. and a relative atmospheric humidity of approximately 100%. The plants are placed in the greenhouse at a temperature of approximately 22° C. and a relative atmospheric humidity of approximately 80%. The test is evaluated 8 days after the inoculation. 0% means an efficacy which corresponds to that of the untreated control, while an efficacy of 100% means that no disease is observed.
# [2] = system: Phytophthora infestans; experiment: whole plant or invertebrate; conditions: Phytophthora infestans, 72 h; for pest or weed control at 1 ppm: read-out: Efficacy in % found, Table A, test 1, 1 ppm a.i.
# [3] = system: Alternaria solani; experiment: Alternaria test (tomatoes)/protective; conditions: Alternaria solani, 72 h, Table E, read-out: Efficacy in % found; for pest or weed control at 2 ppm / pest or weed control at 0.5 ppm: test 1; for pest or weed control at 2 ppm: 2 ppm a.i.; for pest or weed control at 0.5 ppm: 0.5 ppm a.i.
# Experimental: (§4) Solvent: 24.5 parts by weight of acetone
# (§5) • 24.5 parts by weight of dimethylacetamide Emulsifier: 1 part by weight of alkylaryl polyglycol ether
# (§6) To produce a suitable preparation of active compound, 1 part by weight of active compound is mixed with the stated amounts of solvent and emulsifier, and the concentrate is diluted with water to the desired concentration. To test for protective activity, young plants are sprayed with the preparation of active compound at the stated rate of application. After the spray coating has dried on, the plants are inoculated with an aqueous spore suspension of Alternaria solani. The plants are then placed in an incubation cabinet at approximately 20° C. and a relative atmospheric humidity of 100%. The test is evaluated 3 days after the inoculation. 0% means an efficacy which corresponds to that of the control while an efficacy of 100% means that no disease is observed.
# [4] = system: Sphaerotheca fuliginea; experiment: Sphaerotheca test (cucumbers)/protective; conditions: Podosphaera fuliginea, 168 h, Table C, read-out: Efficacy in % found
# Experimental: as §4, §5
# To produce a suitable preparation of active compound, 1 part by weight of active compound is mixed with the stated amounts of solvent and emulsifier, and the concentrate is diluted with water to the desired concentration. To test for protect activity, young plants are sprayed with the preparation of active compound at the stated rate of application. After the spray coating has dried on, the plants are inoculated with an aqueous spore suspension of Sphaerotheca fuliginea. The plants are then placed in a greenhouse at approximately 23° C. and a relative atmospheric humidity of approximately 70%. The test is evaluated 7 days after the inoculation. 0% means an efficacy which corresponds to that of the control, while an efficacy of 100% means that no disease is observed.
# [5] = system: Botrytis cinerea; experiment: Botrytis test (beans)/protective; conditions: Table F; for pest or weed control at 25 ppm / Efficacy in % found: test 1
# Experimental: as §4, §5
# To produce a suitable preparation of active compound, 1 part by weight of active compound is mixed with the stated amounts of solvent and emulsifier, and the concentrate is diluted with water to the desired concentration. To test for protective activity, young plants are sprayed with the preparation of active compound. After the spray coating has dried on, 2 small pieces of agar covered with growth of Botrytis cinerea are placed on each leaf. The inoculated plants are placed in a darkened chamber at 20° C. and a relative atmospheric humidity of 100%. 2 days after the inoculation, the size of the lesions on the leaves is evaluated. 0% means an efficacy which corresponds to that of the control, while an efficacy of 100% means that no disease is observed.
# [6] = system: Septoria tritici; experiment: Septoria tritici-test (wheat)/preventive; conditions: Table H; 62.5 ppm a.i.
# Experimental: as §1, §2
# as §3, with “suspension of Septoria tritici. The plants” for “suspension of Leptosphaeria nodorum. The plants”, “of approximately 100% and afterwards for 60 hours at approximately 15° C. in a translucent incubation cabinet at a relative atmospheric humidity of approximately 100%. The” for “of approximately 100%. The”, “of approximately 15° C. and” for “of approximately 22° C. and”, “is evaluated 21 days after” for “is evaluated 8 days after”
# [7] = system: Venturia inaequalis; experiment: Venturia test (apples)/protective; conditions: Table D
# Experimental: as §4, §5
# as §6, with “conidia” for “spore”, “the causal agent of apple scab (Venturia inaequalis) and” for “Alternaria solani. The plants are”, “remain for 1 day” for “placed”, “The plants are then placed in a greenhouse at approximately 21° C. and a relative atmospheric humidity of approximately 90%. The” for “The”, “10” for “3”, “control,” for “control”
# [8] = system: Pyrenophora teres; experiment: Pyrenophora teres-test (barley)/preventive
# Experimental: as §1, §2
# as §3, with “Pyrenophora teres.” for “Leptosphaeria nodorum.”, “20°” for “22°”
# [9] = system: Plasmopara viticola; experiment: Plasmopara test (grapevines)/protective; conditions: Table B
# Experimental: as §4, §5
# as §6, with “Plasmopara viticola and” for “Alternaria solani. The plants are”, “remain for 1 day” for “placed”, “The plant is subsequently placed for 4 days in a greenhouse at approximately 21° C. and a relative atmospheric humidity of approximately 90%. The plants are then misted and placed for 1 day in an incubation cabinet. The” for “The”, “6” for “3”, “control,” for “control”
# [10] = Botrytis cinerea, 48 h, 25 ppm a.i., read-out: Efficacy in % found
smiles,measurement,setting,value
"C[C@@]1(c2ccc(Oc3ccccc3)cc2)OC(=O)N(Nc2ccccc2)C1=O (racemic) [(3.6), famoxadone]",pest or weed control at 500 ppm,[1],67%
same,pest or weed control at 2.5 ppm,"[2]; read-out: Efficacy in % found, Table A, test 7, 2.5 ppm a.i.",31%
"OC(Cc1ccccc1Cl)(Cn1nc[nH]c1=S)C1(Cl)CC1 (stereo not shown) [(1.41), prothioconazole]",pest or weed control at 2 ppm,[3],30%
same,pest or weed control at 0.5 ppm,"[4]; test 1, 0.5 ppm a.i.",37%
same,pest or weed control at 125 ppm,[1],88%
same,pest or weed control at 25 ppm,[5]; [10],49%
"CC(C)(C)C(O)(CCc1ccc(Cl)cc1)Cn1cncn1 (stereo not shown) [(1.47), tebuconazole]",pest or weed control at 2 ppm,[3],35%
same,pest or weed control at 2 ppm,"[4]; test 1, 2 ppm a.i.",50%
same,pest or weed control at 125 ppm,[1],88%
same,pest or weed control at 25 ppm,[5]; [10],4%
"Cn1cc(C(=O)Nc2ccc(F)cc2-c2ccc(Cl)c(Cl)c2)c(C(F)F)n1 [(2.2), bixafen]",Efficacy in % found,[6],50%
same,Efficacy in % found,"[7]; test 2, 0.5 ppm a.i.",0%
"O=C(Nc1ccccc1-c1ccc(Cl)cc1)c1cccnc1Cl [(2.3), boscalid]",Efficacy in % found,"[7]; test 1, 5 ppm a.i.",0%
same,Efficacy in % found,"[8]; Table I1, 62.5 ppm a.i.",50%
same,pest or weed control at 25 ppm,[5]; [10],50%
"O=C(NCCc1ncc(C(F)(F)F)cc1Cl)c1ccccc1C(F)(F)F [(2.6), fluopyram]",Efficacy in % found,[6],90%
same,Efficacy in % found,"[7]; test 1, 1 ppm a.i.",0%
"CC(C)C1C2CCC1c1c(NC(=O)c3cn(C)nc3C(F)F)cccc12 (stereo not shown) [(2.10), isopyrazam]",Efficacy in % found,[6],80%
same,Efficacy in % found,"[7]; test 1, 1 ppm a.i.",28%
"Cc1nn(C)c(F)c1C(=O)Nc1ccccc1C(C)CC(C)C (stereo not shown) [(2.19), penflufen]",Efficacy in % found,[6],50%
same,Efficacy in % found,"[7]; test 1, 1 ppm a.i.",0%
same,Efficacy in % found,[5]; 50 ppm a.i.,65%
"Cn1cc(C(=O)Nc2ccccc2C2CC2C2CC2)c(C(F)F)n1 (stereo not shown) [(2.21), sedaxane]",Efficacy in % found,"[7]; test 1, 1 ppm a.i.",24%
same,Efficacy in % found,"[8]; Table I1, 125 ppm a.i.",50%
same,Efficacy in % found,[5]; 25 ppm a.i.,30%
"Cc1ccc(-c2c(Cl)nc(C#N)n2S(=O)(=O)N(C)C)cc1 [(3.3), cyazofamid]",Efficacy in % found,[9]; 1 ppm a.i.,0%
"CO/N=C(/C1=NOCCO1)c1ccccc1Oc1ncnc(Oc2ccccc2Cl)c1F [(3.8), fluoxastrobin]",pest or weed control at 0.5 ppm,[3],40%
same,pest or weed control at 62.5 ppm,[1],63%
same,pest or weed control at 25 ppm,[5]; [10],8%
same,pest or weed control at 1 ppm,[2],30%
"CO/N=C(/C(=O)OC)c1ccccc1COc1ccccc1C [(3.9), kresoxim-methyl]",pest or weed control at 2.5 ppm,"[3]; test 2, 2.5 ppm a.i.",50%
same,pest or weed control at 5 ppm,"[4]; test 4, 5 ppm a.i.",52%
same,Efficacy in % found,"[8]; Table I2, 62.5 ppm a.i.",67%
same,pest or weed control at 2.5 ppm,"[5]; Botrytis cinerea, 48 h, test 3, 2.5 ppm a.i., read-out: Efficacy in % found",75%
"COC(=O)N(OC)c1ccccc1COc1ccn(-c2ccc(Cl)cc2)n1 [(3.13), pyraclostrobin]",pest or weed control at 0.5 ppm,[3],50%
same,pest or weed control at 62.5 ppm,[1],88%
same,Efficacy in % found,"[7]; test 1, 0.5 ppm a.i.",38%
same,pest or weed control at 25 ppm,[5]; [10],63%
same,pest or weed control at 1 ppm,[2],58%
"CON=C(C(=O)OC)c1ccccc1CON=C(C)c1cccc(C(F)(F)F)c1 [(3.17), trifloxystrobin]",pest or weed control at 0.5 ppm,[3],30%
same,Efficacy in % found,"[7]; test 1, 0.5 ppm a.i.",8%
same,pest or weed control at 25 ppm,[5]; [10],40%
"CCC(C)(NC(=O)c1cc(Cl)c(C)c(Cl)c1)C(=O)CCl (stereo not shown) [(4.9), zoxamide]",Efficacy in % found,[9]; 2 ppm a.i.,6%
same,pest or weed control at 1 ppm,[2],58%
"CN(C)C(=S)SSC(=S)N(C)C [(5.25), thiram]",pest or weed control at 500 ppm,[1],33%
"Cc1cc(C2CC2)nc(Nc2ccccc2)n1 [(7.3), cyprodinyl]",Efficacy in % found,"[8]; Table I1, 125 ppm a.i.",67%
same,pest or weed control at 10 ppm,"[5]; Botrytis cinerea, 48 h, test 2, 10 ppm a.i., read-out: Efficacy in % found",0%
"C#CCOc1ccc(CCNC(=O)C(OCC#C)c2ccc(Cl)cc2)cc1OC (stereo not shown) [(9.5), mandipropamid]",Efficacy in % found,[9]; 1 ppm a.i.,57%
"O=[N+]([O-])c1cc(C(F)(F)F)c(Cl)c([N+](=O)[O-])c1Nc1ncc(C(F)(F)F)cc1Cl [(14.2), fluazinam]",pest or weed control at 500 ppm,[1],89%
